Experimental data taken from publication PMC5906549, “Cathelicidin-Derived Antimicrobial Peptides Inhibit Zika Virus Through Direct Inactivation and Interferon Pathway” (Frontiers in Immunology, 2018).
Peptide text beside a SMILES is read from it.

System: ZIKV strain MR766
Assay: Extracellular ZIKV RNA in supernatants of infected human fetal astrocytes (real-time RT-PCR)
Type: cell-based, Zika virus
Settings: ZIKV MOI 0.5, 48 h, cell-free supernatants
Protocol: Total mRNA was isolated with TRIzol Reagent (Thermo Fisher Scientific) and RNeasy Mini Kit (QIAGEN Inc., Valencia, CA, USA) following the manufacturer’s recommendations. Two real-time RT-PCR methods were used for the current studies. First, SYBR Green-based RT-PCR assay was used to determine intracellular ZIKV RNA in Vero cells. For this assay, reverse transcription was performed using Verso cDNA synthesis Kit (Thermo Fisher Scientific) and 1 µg of total RNA in a 15-µL final volume. The RT-PCR analyses were performed using 7.5-µL SYBR Green PCR Master Mix (Thermo Fisher Scientific) with 0.5-µL cDNA, 1.5-µL H2O, 5.5-µL oligonucleotide primer pairs at 10 µM. […] GG-3. PCR program: 1, 50°C for 2 min; 2, 95°C for 2 min; 3, 95°C for 15 s; 4, specific annealing temperature for 15 s; 5, 72°C for 1 min. Steps 2–4 were repeated 40 times. All samples were amplified in triplicate for analysis. Relative ZIKV RNA levels were determined and standardized with a GAPDH internal control using comparative ΔΔCT method ([35]). Second, TaqMan-based RT-PCR assay was used to determine intracellular ZIKV RNA and other gene expressions in Figures 3–6 and extracellular ZIKV RNA in Figure 3. The TaqMan assay was performed in a StepOne^TM Real-Time PCR system (Thermo Fisher Scientific). Primers used for TaqMan real-time RT-PCR were all from the Thermo Fisher Scientific, which included ZIKV (forward sequence: 5-[…]-3, reverse sequence: 5- […]-3, and probe sequence: 5′-[…]-3), IFN-α2 (Hs00265051_s1), IFN-β1 (Hs01077958_s1), eukaryotic 18-s rRNA (Hs99999901_s1), β-actin (Hs99999903_m1), and GAPDH (Catalog number: 4310884E). Relative ZIKV mRNA levels were determined and standardized with a GAPDH or 18-s rRNA endogenous control using comparative ΔΔCT method ([35]). […] Quantitative genomic RNA from ZIKV (NR-1838DQ, ATCC) was used as a standard to calculate viral copies.
(A) Human fetal astrocytes were treated with doses of the selected peptides ranging from 1 to 50 µM. […] Cell viability was determined by a colorimetric MTS assay. […] Data were analyzed by nonlinear regression and assessed the EC50 for each of the antimicrobial peptides. […] At the experimental endpoint, intracellular ZIKV RNA (B) was determined through real-time RT-PCR in total cellular RNA. […] Extracellular ZIKV RNA [(C), in log scale] was determined through real-time RT-PCR using total RNA isolated from cell-free supernatants. ZIKV virion levels (in log scale) were determined by adding cell-free culture supernatants to Vero cells and overlaid with Agar gel in viral PFA (D). Viral plaques were manually counted and calculated as PFU/mL (E). * p < 0.05, ** p < 0.01, and *** p < 0.001, as compared with the ZIKV group without peptide treatment (ANOVA, N = 3).

CC[C@H](C)[C@H](NC(=O)[C@H](CCCCN)NC(=O)[C@H](CCCCN)NC(=O)[C@H](Cc1ccccc1)NC(=O)[C@H](CC(C)C)NC(=O)[C@H](CCCCN)NC(=O)[C@H](CCCCN)NC(=O)[C@H](Cc1ccccc1)NC(=O)[C@H](CCCCN)NC(=O)[C@H](CCCCN)NC(=O)[C@H](CCCNC(=N)N)NC(=O)[C@H](Cc1ccccc1)NC(=O)[C@H](CCCNC(=N)N)NC(=O)[C@H](CCCCN)NC(=O)[C@H](Cc1ccccc1)NC(=O)[C@H](CCCNC(=N)N)NC(=O)CN)C(=O)N[C@@H](CO)C(=O)O [BMAP-18] (H-GRFKRFRKKFKKLFKKIS-OH; N-terminus and C-terminus assumed)
Extracellular ZIKV RNA in culture supernatants, reduced to % of untreated (peptide 2 µM): 5.6% | Extracellular ZIKV RNA in culture supernatants, reduced to % of untreated (peptide 10 µM): 1.3%

CC[C@H](C)[C@H](NC(=O)[C@H](CCCNC(=N)N)NC(=O)[C@H](CCC(N)=O)NC(=O)[C@@H](NC(=O)[C@@H](NC(=O)[C@H](CCCNC(=N)N)NC(=O)[C@H](CCCCN)NC(=O)[C@H](Cc1ccccc1)NC(=O)CN)[C@@H](C)CC)C(C)C)C(=O)N[C@@H](CCCCN)C(=O)N[C@@H](CC(=O)O)C(=O)N[C@@H](Cc1ccccc1)C(=O)N[C@@H](CC(C)C)C(=O)N[C@@H](CCCNC(=N)N)C(=O)N[C@@H](CC(N)=O)C(=O)N[C@@H](CC(C)C)C(=O)N[C@H](C(N)=O)C(C)C [GF-17] (H-GFKRIVQRIKDFLRNLV-NH2; N-terminus and C-terminus assumed)
Extracellular ZIKV RNA in culture supernatants, reduced to % of untreated (peptide 2 µM): 16.7% | Extracellular ZIKV RNA in culture supernatants, reduced to % of untreated (peptide 10 µM): 0.1%
